The values that follow come from publication PMC7277387, “Tailoring Uptake Efficacy of HSV-1 gD Tailoring Uptake Efficacy of Hsv-1 GD Derived Carrier Peptides” (Biomolecules, 2020).

The format of data set [1] is physicochemical. The settings on record: 1 mg/mL in serum-free DMEM, 37 °C, samples at 0, 3, 6 and 24 h, RP-HPLC C18, A220. Here is the method: Before the cellular uptake studies the stability of the Cf-labelled synthetic peptides was determined. Peptides were dissolved at 1 mg/mL concentration in serum-free DMEM medium (Lonza, Basel, Switzerland), and incubated at 37 °C for 24 h. Samples for RP-HPLC (Knauer, Berlin, Germany) were taken at 0, 3, 6 and 24 h. Phenomenex Luna C18 column (5 μm, 300 Å, 4.6 mm × 250 mm) (Gen-Lab Ltd., Budapest, Hungary) was applied with a gradient of 0–5 min 5% B eluent elevated to 55% B during 25 min, where eluent A: 0.1% TFA/water, eluent B: 0.1% TFA/acetonitrile–water 80:20 (v/v).
Figure S12. Stability study of (a) Cf-(236-255) and (b) Cf-(228-247), dissolved in DMEM serum free medium and incubated at 37 °C, followed by RP-HPLC. Samples for RP-HPLC (Knauer, Berlin, Germany) were taken at 0, 3, 6 and 24 hrs. Phenomenex Luna C18 column (5 μm, 300 Å, 4.6 mm × 250 mm) was applied with a gradient of 0-5 min 5% eluent B elevated to 55% B during 25 min, where eluent A: 0.1% TFA / water, eluent B: 0.1% TFA / acetonitrile –water 80:20 (v/v). Control: DMEM serum free medium. In case of Cf-(236-255) evaporation during the incubation caused increasing peptide peaks. Both peptides contain oxidation sensitive Trp residue. Cf -(236-255) was stable even after 24 h, the rising intensity of the peak representing the peptide is due to evap oration during the […]
to be stable during this interval. […]

The test system of data set [2] is SH-SY5Y neuroblastoma cells. Briefly: Cellular uptake of Cf-labelled peptides by flow cytometry. Conditions: for cellular uptake (in words): Figure S19. (In flow cytometry, cells or beads pass a laser one at a time.)
Data set [3] is described as follows: Secondary structure of acetylated peptides by far-UV ECD spectroscopy. Conditions: acetylated peptide; for α-helix fraction (PEPFIT): far-UV ECD, PEPFIT fit. It counts as physicochemical. Here is the method:
ECD spectra of acetylated HSV peptides were recorded using a Jasco J-810 and Jasco J-715 spectropolarimeter (Jasco Corporation, Tokyo, Japan) in the λ = 180–270 nm wavelength range using a 0.02 or a 0.1 cm path length quartz cell at room temperature, under constant nitrogen flush with continuous scanning mode. All spectra reported here were obtained as an average of three or five individual scans and corrected with the solvent ECD spectra. The J-810 equipment was calibrated with ammonium α-10-camphor-sulfonate. The samples were dissolved in trifluoroethanol (TFE) (Sigma), distilled water and a 1:1 (v/v) mixture of TFE:water. The solution concentration was in the range of 0.5–0.7 mg/mL (J-810) or ~0.14 mg/mL (J-715) for peptide amides. ECD band intensities are expressed in mean residual molar ellipticity unit. The percentage of the different conformational elements contributing to the ECD spectra was calculated by the MS Excel version of the PEPFIT program developed originally by Reed and Reed. The algorithm estimates the percentage of secondary contents by fitting experimental ECD data to the combination of reference spectra. The best fit is defined by the R^2 value, where an R^2 = 1 corresponds to a perfect match.
The helical content of the peptides in different solvents was also estimated employing the simple equation formulated by Chen and Yang: fH = -([Θ]222 + 2340)/30,300 where fH the fraction of helix and [Θ]222 is the measured mean residual ellipticity at 222 nm. It seems that the helical fractions obtained correlate favourably with the results of the curve fitting procedure (Table 2). […]

In the case of `CC[C@H](C)[C@H](NC(=O)[C@H](CCCCN)NC(=O)[C@H](CC(C)C)NC(=O)[C@H](CO)NC(=O)[C@H](Cc1ccc(O)cc1)NC(=O)[C@@H](NC(=O)[C@H](C)NC(=O)[C@@H](NC(=O)[C@@H](NC(=O)[C@H](CCCNC(=N)N)NC(=O)[C@H](CCC(N)=O)NC(=O)c1ccc2c(c1)C(=O)OC21c2ccc(O)cc2Oc2cc(O)ccc21)[C@@H](C)O)C(C)C)C(C)C)C(=O)N[C@@H](C)C(=O)NCC(=O)N[C@@H](Cc1c[nH]c2ccccc12)C(=O)N[C@@H](Cc1c[nH]cn1)C(=O)NCC(=O)N1CCC[C@H]1C(=O)N[C@@H](CCCCN)C(=O)N[C@@H](C)C(=O)N1CCC[C@H]1C(N)=O` [Cf-(228–247)], the “stability of the intact peptide” value in data set [1] is recorded as “decreased intensity of the intact peptide”.

Turning to `CC[C@H](C)[C@H](NC(=O)[C@H](CCCCN)NC(=O)[C@H](CC(C)C)NC(=O)c1ccc2c(c1)C(=O)OC21c2ccc(O)cc2Oc2cc(O)ccc21)C(=O)N[C@@H](C)C(=O)NCC(=O)N[C@@H](Cc1c[nH]c2ccccc12)C(=O)N[C@@H](Cc1c[nH]cn1)C(=O)NCC(=O)N1CCC[C@H]1C(=O)N[C@@H](CCCCN)C(=O)N[C@@H](C)C(=O)N1CCC[C@H]1C(=O)N[C@@H](Cc1ccc(O)cc1)C(=O)N[C@H](C(=O)N[C@@H](CO)C(=O)N[C@H](C(=O)N[C@@H](CC(C)C)C(=O)N[C@@H](CC(C)C)C(=O)N1CCC[C@H]1C(=O)N1CCC[C@H]1C(N)=O)[C@@H](C)O)[C@@H](C)O` [Cf-(236–255)], the “stability of the intact peptide” value in data set [1] was “stable even”.

For Cf-TKPKGTKPKG [OT10], the “cellular uptake (in words)” value is reported as “did not reach the level of internalisation of HSV peptides even with moderate uptake level” in data set [2] (c = 10 µM, compared with Cf-HSV peptides) and “effective cellular uptake, though not reaching 100%” in data set [2] (c = 50 µM).

Take “Cf-^219M*LPRFIPENQRTVAVYSLKI^238 [Cf-(219–238)]”: in data set [2] (c = 2 μM, 3 h), the “percentage of Cf-positive live cells” value is given as 15–20%.

Turning to “^-1 GKYALADASLKMADPNRF^19 [acetylated HSV-1 gD -1–19 peptide amide for ECD]”, in data set [3] (H2O), the “disordered fraction (PEPFIT)” value was found to be 64%, the “turn fraction (PEPFIT)” value amounted to 24% and the “β-sheet fraction (PEPFIT)” value was determined as 4%. The “α-helix fraction (PEPFIT)” value in data set [3] (H2O, room temperature) was 8%. For the same compound, in data set [3] (H2O:TFE 1:1 (v/v)), the “disordered fraction (PEPFIT)” value was found to be 10%, the “turn fraction (PEPFIT)” value was 40%, the “β-sheet fraction (PEPFIT)” value is 0% and the “α-helix fraction (PEPFIT)” value worked out at 50%. For the same compound, in data set [3] (TFE), the “disordered fraction (PEPFIT)” value was found to be 0%, the “turn fraction (PEPFIT)” value is listed as 30%, the “β-sheet fraction (PEPFIT)” value stood at 0% and the “α-helix fraction (PEPFIT)” value is recorded as 70%.
